Source: the NIST ThermoML archive (doi:10.1021/je501041r)
Numbers after ± are expanded uncertainties. One block for each molecule: values may come before it.

How the values were obtained:
[1] = 101 kPa, Liquid; for viscosity: Capillary tube (Ostwald / Ubbelohde) method; for mass density: Vibrating tube method
[2] = xn = mol fraction of the nth substance listed; details: 101 kPa, Liquid; for viscosity: Capillary tube (Ostwald / Ubbelohde) method; for mass density: Vibrating tube method

SMILES: CCCO [propan-1-ol] + CC(C)CC(C)(C)C
viscosity ([2]; 298.15 K, x2 = 0): 1.955 ± 0.023 mPa·s
mass density ([2]; 298.15 K, x2 = 0): 800.03 ± 2 kg/m3
viscosity ([2]; 303.15 K, x2 = 0): 1.737 ± 0.02 mPa·s
mass density ([2]; 303.15 K, x2 = 0): 796.01 ± 2 kg/m3
viscosity ([2]; 308.15 K, x2 = 0): 1.548 ± 0.018 mPa·s
mass density ([2]; 308.15 K, x2 = 0): 791.92 ± 2 kg/m3
viscosity ([2]; 313.15 K, x2 = 0): 1.384 ± 0.016 mPa·s
mass density ([2]; 313.15 K, x2 = 0): 787.79 ± 2 kg/m3
viscosity ([2]; 318.15 K, x2 = 0): 1.241 ± 0.015 mPa·s
mass density ([2]; 318.15 K, x2 = 0): 783.65 ± 2 kg/m3
viscosity ([2]; 323.15 K, x2 = 0): 1.117 ± 0.013 mPa·s
mass density ([2]; 323.15 K, x2 = 0): 779.43 ± 2 kg/m3

SMILES: CCCCCCO [hexan-1-ol]
viscosity ([1]; 298.15 K): 4.605 ± 0.056 mPa·s
mass density ([1]; 298.15 K): 815.3 ± 2 kg/m3
viscosity ([1]; 303.15 K): 3.944 ± 0.048 mPa·s
mass density ([1]; 303.15 K): 811.71 ± 2 kg/m3
viscosity ([1]; 308.15 K): 3.414 ± 0.042 mPa·s
mass density ([1]; 308.15 K): 808.09 ± 2 kg/m3
viscosity ([1]; 313.15 K): 2.96 ± 0.036 mPa·s
mass density ([1]; 313.15 K): 804.43 ± 2 kg/m3
viscosity ([1]; 318.15 K): 2.581 ± 0.032 mPa·s
mass density ([1]; 318.15 K): 800.75 ± 2 kg/m3
viscosity ([1]; 323.15 K): 2.251 ± 0.028 mPa·s
mass density ([1]; 323.15 K): 797.02 ± 2 kg/m3

SMILES: CCCCCCCO [heptan-1-ol]
viscosity ([1]; 298.15 K): 6.004 ± 0.073 mPa·s
mass density ([1]; 298.15 K): 818.82 ± 2 kg/m3
viscosity ([1]; 303.15 K): 5.079 ± 0.062 mPa·s
mass density ([1]; 303.15 K): 815.3 ± 2 kg/m3
viscosity ([1]; 308.15 K): 4.374 ± 0.054 mPa·s
mass density ([1]; 308.15 K): 811.75 ± 2 kg/m3
viscosity ([1]; 313.15 K): 3.8 ± 0.047 mPa·s
mass density ([1]; 313.15 K): 808.17 ± 2 kg/m3
viscosity ([1]; 318.15 K): 3.224 ± 0.04 mPa·s
mass density ([1]; 318.15 K): 804.57 ± 2 kg/m3
viscosity ([1]; 323.15 K): 2.851 ± 0.035 mPa·s
mass density ([1]; 323.15 K): 800.93 ± 2 kg/m3

SMILES: CCCO [propan-1-ol]
viscosity ([1]; 298.15 K): 1.955 ± 0.023 mPa·s
mass density ([1]; 298.15 K): 800.03 ± 2 kg/m3
viscosity ([1]; 303.15 K): 1.737 ± 0.02 mPa·s
mass density ([1]; 303.15 K): 796.01 ± 2 kg/m3
viscosity ([1]; 308.15 K): 1.548 ± 0.018 mPa·s
mass density ([1]; 308.15 K): 791.92 ± 2 kg/m3
viscosity ([1]; 313.15 K): 1.384 ± 0.016 mPa·s
mass density ([1]; 313.15 K): 787.79 ± 2 kg/m3
viscosity ([1]; 318.15 K): 1.241 ± 0.015 mPa·s
mass density ([1]; 318.15 K): 783.65 ± 2 kg/m3
viscosity ([1]; 323.15 K): 1.117 ± 0.013 mPa·s
mass density ([1]; 323.15 K): 779.43 ± 2 kg/m3

SMILES: CCCCCO [pentan-1-ol]
viscosity ([1]; 298.15 K): 3.458 ± 0.042 mPa·s
mass density ([1]; 298.15 K): 810.59 ± 2 kg/m3
viscosity ([1]; 303.15 K): 3.007 ± 0.037 mPa·s
mass density ([1]; 303.15 K): 807.89 ± 2 kg/m3
viscosity ([1]; 308.15 K): 2.625 ± 0.032 mPa·s
mass density ([1]; 308.15 K): 804.16 ± 2 kg/m3
viscosity ([1]; 313.15 K): 2.317 ± 0.029 mPa·s
mass density ([1]; 313.15 K): 800.4 ± 2 kg/m3
viscosity ([1]; 318.15 K): 2.029 ± 0.025 mPa·s
mass density ([1]; 318.15 K): 796.59 ± 2 kg/m3
viscosity ([1]; 323.15 K): 1.795 ± 0.022 mPa·s
mass density ([1]; 323.15 K): 792.75 ± 2 kg/m3

Now from value to molecule:

viscosity ([1]; 298.15 K): 0.478 ± 0.006 mPa·s
mass density ([1]; 298.15 K): 687.82 ± 2 kg/m3
viscosity ([1]; 303.15 K): 0.453 ± 0.005 mPa·s
mass density ([1]; 303.15 K): 683.68 ± 2 kg/m3
viscosity ([1]; 308.15 K): 0.429 ± 0.005 mPa·s
mass density ([1]; 308.15 K): 679.52 ± 2 kg/m3
viscosity ([1]; 313.15 K): 0.408 ± 0.005 mPa·s
mass density ([1]; 313.15 K): 675.32 ± 2 kg/m3
viscosity ([1]; 318.15 K): 0.388 ± 0.005 mPa·s
mass density ([1]; 318.15 K): 671.1 ± 2 kg/m3
viscosity ([1]; 323.15 K): 0.369 ± 0.005 mPa·s
mass density ([1]; 323.15 K): 666.85 ± 2 kg/m3
SMILES: CC(C)CC(C)(C)C [2,2,4-trimethylpentane]

viscosity ([2]; 298.15 K, x1 = 1): 0.478 ± 0.006 mPa·s
mass density ([2]; 298.15 K, x1 = 1): 687.82 ± 2 kg/m3
viscosity ([2]; 303.15 K, x1 = 1): 0.453 ± 0.005 mPa·s
mass density ([2]; 303.15 K, x1 = 1): 683.68 ± 2 kg/m3
viscosity ([2]; 308.15 K, x1 = 1): 0.429 ± 0.005 mPa·s
mass density ([2]; 308.15 K, x1 = 1): 679.52 ± 2 kg/m3
viscosity ([2]; 313.15 K, x1 = 1): 0.408 ± 0.005 mPa·s
mass density ([2]; 313.15 K, x1 = 1): 675.32 ± 2 kg/m3
viscosity ([2]; 318.15 K, x1 = 1): 0.388 ± 0.005 mPa·s
mass density ([2]; 318.15 K, x1 = 1): 671.1 ± 2 kg/m3
viscosity ([2]; 323.15 K, x1 = 1): 0.369 ± 0.005 mPa·s
mass density ([2]; 323.15 K, x1 = 1): 666.85 ± 2 kg/m3
SMILES: CC(C)CC(C)(C)C [2,2,4-trimethylpentane] + CCCCCCO

viscosity ([2]; 298.15 K, x1 = 1): 0.478 ± 0.006 mPa·s
mass density ([2]; 298.15 K, x1 = 1): 687.82 ± 2 kg/m3
viscosity ([2]; 303.15 K, x1 = 1): 0.453 ± 0.005 mPa·s
mass density ([2]; 303.15 K, x1 = 1): 683.68 ± 2 kg/m3
viscosity ([2]; 308.15 K, x1 = 1): 0.429 ± 0.005 mPa·s
mass density ([2]; 308.15 K, x1 = 1): 679.52 ± 2 kg/m3
viscosity ([2]; 313.15 K, x1 = 1): 0.408 ± 0.005 mPa·s
mass density ([2]; 313.15 K, x1 = 1): 675.32 ± 2 kg/m3
viscosity ([2]; 318.15 K, x1 = 1): 0.388 ± 0.005 mPa·s
mass density ([2]; 318.15 K, x1 = 1): 671.1 ± 2 kg/m3
viscosity ([2]; 323.15 K, x1 = 1): 0.369 ± 0.005 mPa·s
mass density ([2]; 323.15 K, x1 = 1): 666.85 ± 2 kg/m3
SMILES: CC(C)CC(C)(C)C [2,2,4-trimethylpentane] + CCCCCO

viscosity ([2]; 298.15 K, x1 = 1): 0.478 ± 0.006 mPa·s
mass density ([2]; 298.15 K, x1 = 1): 687.82 ± 2 kg/m3
viscosity ([2]; 303.15 K, x1 = 1): 0.453 ± 0.005 mPa·s
mass density ([2]; 303.15 K, x1 = 1): 683.68 ± 2 kg/m3
viscosity ([2]; 308.15 K, x1 = 1): 0.429 ± 0.005 mPa·s
mass density ([2]; 308.15 K, x1 = 1): 679.52 ± 2 kg/m3
viscosity ([2]; 313.15 K, x1 = 1): 0.408 ± 0.005 mPa·s
mass density ([2]; 313.15 K, x1 = 1): 675.32 ± 2 kg/m3
viscosity ([2]; 318.15 K, x1 = 1): 0.388 ± 0.005 mPa·s
mass density ([2]; 318.15 K, x1 = 1): 671.1 ± 2 kg/m3
viscosity ([2]; 323.15 K, x1 = 1): 0.369 ± 0.005 mPa·s
mass density ([2]; 323.15 K, x1 = 1): 666.85 ± 2 kg/m3
SMILES: CC(C)CC(C)(C)C [2,2,4-trimethylpentane] + CCCCCCCO
